{"source": "patent US10729668B2", "about": "“Ketobutyrate compounds and compositions for treating age-related symptoms and diseases” (The Regents of the University of California, priority 2014, dated 2020)", "key": {"NADH dehydrogenase": {"test_system": "NADH dehydrogenase", "assay": "Electron flow assay, isolated liver mitochondria", "assay_type": "biochemical, mouse", "method": "Animal studies were performed under approved UCLA animal research protocols. Mitochondria from 3-month-old C57BL/6 mice were isolated. Briefly, livers were extracted, minced at 4° C. in MSHE+BSA (70 mM sucrose, 210 mM mannitol, 5 mM HEPES, 1 mM EGTA, and 0.5% fatty acid free BSA, pH 7.2), and rinsed several times to remove blood. All subsequent steps were performed on ice or at 4° C. The tissue was disrupted in 10 volumes of MSHE+BSA with a glass Dounce homogenizer (5-6 strokes) and the homogenate was centrifuged at 800×g for 10 minutes to remove tissue debris and nuclei. The supernatant was decanted through a cell strainer and centrifuged at 8,000×g for 10 minutes. […] Isolated mitochondrial respiration was measured by running coupling and electron flow assays as described. […] After basal readings, the sequential injections were as follows: 2 μM rotenone (Complex I inhibitor), 10 mM succinate (Complex II substrate), 4 μM antimycin A (Complex III inhibitor), and 10 mM/100 μM ascorbate/tetramethylphenylenediamine (Complex IV substrate). […]"}, "C2C12 Cells": {"test_system": "C2C12 Cells", "assay": "Oxygen consumption rate (OCR) in C2C12 cells, Seahorse XF-24", "assay_type": "cell-based, mouse", "settings": "1 hour treatment", "method": "Measurement of oxygen consumption rates (OCR). OCR measurements were made using a Seahorse XF-24 analyzer (Seahorse Bioscience). C2C12 Cells were seeded in Seahorse XF-24 cell culture microplates at 30,000 cells per well in DMEM media supplemented with 10% FBS and 10 mM glucose, and incubated at 37° C. and 5% CO2 overnight. Treatment with α-KB or DMSO (vehicle control) was for 1 hour. Cells were washed in unbuffered DMEM medium (pH 7.4, 10 mM glucose) just before measurements, and maintained in this buffer with indicated concentrations of α-KB. OCR was measured three times under basal conditions and normalized to protein concentration per well."}, "C57BL/6 male mice": {"test_system": "C57BL/6 male mice", "assay": "Transverse aortic constriction (TAC) induced heart failure and cardiac hypertrophy", "assay_type": "in vivo, mouse", "method": "Surgical procedure was performed one day before treatment with vehicle or α-KB. Cardiac output was assessed 3 weeks post-treatment by determining the cardiac ejection fraction (EF) by echo.\nTransverse aortic constriction (TAC) in mice was used to induce pressure overload-induced heart failure and cardiac hypertrophy. TAC surgical procedure was performed one day before treatment with vehicle or α-KB. C57BL/6 male mice were treated with α-KB at 30 mg/kg body weight per day in drinking water. Cardiac output was assessed 3 weeks post-treatment by determining the cardiac ejection fraction (EF) measured by Echo."}, "male mice": {"test_system": "male mice", "assay": "In vivo ischemia reperfusion injury, coronary artery occlusion", "parameters": "species or system mouse", "settings": "800 μM single bolus via tail vein at onset of reperfusion, 24 hours reperfusion, n=6", "method": "The LAD is occluded in male mice for 30 minutes followed by a 24 hour reperfusion. At the onset of reperfusion one bolus of α-KB or PBS was applied via tail vein.\nTo examine the cardioprotective role of α-KB, an in vivo model of ischemia reperfusion injury was used. The left coronary artery was occluded for 30 minutes in male mice followed by 24 hours of reperfusion. One single bolus of PBS (vehicle control) or α-KB (800 μM) was applied through the tail vein at the onset of reperfusion (FIG. 9A)."}, "HCV": {"test_system": "HCV", "assay": "Renilla reporter HCV infection of Huh7.5 cells, luciferase activity", "assay_type": "cell-based", "settings": "1 mM and 1 μM, 72 hours post treatment", "method": "(§1) As subjects age, their susceptibility to infection increases. Therefore, to determine whether α-KB reduces ones susceptibility to age-related infection, Huh7.5 cells were infected with the Renilla reporter HCV for 5 hours and subsequently treated with 1 mM and 1 μM of α-KB. 72 hours post treatment, the cells were lysed and luciferase activity was measured. JG-98, which is a suppressor of viral assembly, was used as a positive control and water was used as a negative control. […] To ensure that the anti-viral activity of α-KB is not the result of cytotoxicity, Huh7.5 cells were treated with 1 mM, 100 μM, 10 μM, 1 μM, and 100 nM α-KB. MTT assays were performed every 24 hours up to 72 hours post treatment. Luteolin, an anti-cancer compound which is cytotoxic, was used as a positive control and water was used as a negative control."}, "Huh7.5 cells": {"test_system": "Huh7.5 cells", "assay": "MTT cytotoxicity assay", "assay_type": "cell-based", "settings": "100 nM to 1 mM, up to 72 hours", "method": "as §1"}, "[1]": {"test_system": "nuo-6(qm200), daf-2(e1370), eat-2(ad1116) mutant C. elegans strains", "assay": "Lifespan of long-lived mutant C. elegans strains", "assay_type": "in vivo, Caenorhabditis elegans", "source_text": "The nuo-6 gene encodes the C. elegans ortholog of the NDUFB4/B15 subunit of the mitochondrial electron transport chain complex I, also known as the NADH dehydrogenase complex."}}, "data": [{"compound": "CCC(=O)C(=O)O", "note": "[α-KB, α-ketobutyrate]", "values": [{"measurement": "respiration in electron flow assay", "setting": "NADH dehydrogenase", "result": "only NADH dehydrogenase related respiration is inhibited"}, {"measurement": "basal respiration", "setting": "C2C12 Cells", "result": "inhibited"}, {"measurement": "maximal respiration (mitochondrial respiration upon FCCP treatment)", "setting": "C2C12 Cells", "result": "inhibited"}, {"measurement": "mortality", "setting": "C57BL/6 male mice", "result": "appeared to decrease mortality"}, {"measurement": "heart (mg)/body (g) ratio", "setting": "C57BL/6 male mice; end of experiment (5 weeks), Mean, STEDV", "result": "10.72±1.98"}, {"measurement": "ratio of infarct size to AAR", "setting": "male mice", "result": "31.2±3.6"}, {"measurement": "HCV infection (luciferase activity)", "setting": "HCV", "result": "inhibits or reduces viral infection"}, {"measurement": "cytotoxicity (MTT)", "setting": "Huh7.5 cells", "result": "not cytotoxic"}, {"measurement": "lifespan of daf-2(e1370) strain", "setting": "[1]; daf-2(e1370)", "result": "does extend the lifespan"}, {"measurement": "lifespan of eat-2(ad1116) strain", "setting": "[1]; eat-2(ad1116)", "result": "does extend the lifespan"}, {"measurement": "lifespan of nuo-6(qm200) strain", "setting": "[1]; nuo-6(qm200)", "result": "inability of α-KB to extend the lifespan"}]}]}
